One assay has as its system A2780. Nature of the assay: Antiproliferative activity against human A2780 cells after 2 days by Alamar Blue assay. The assay is classed as functional, cell-based. As to conditions: for IC50: A2780, 48 h. (The colour change of resazurin is a common sign of viable cells or microbes.)
Another assay relates to Plasmodium falciparum. Description: Antimalarial activity against chloroquine/mefloquine-resistant Plasmodium falciparum Dd2 after 72 hrs by SYBR Green I assay. The format is functional. As to conditions: Dd2, 72 h.

Structures are written as SMILES. Activity calls are given as the source filed them. No cut-off for these calls is given here.

`CC(=O)O[C@H]1C(=O)[C@@]2(C)[C@H]([C@H](OC(=O)c3ccccc3)[C@]3(O)C[C@H](OC(=O)[C@H](O)[C@@H](NC(=O)c4ccccc4)c4ccccc4)C(C)=C1C3(C)C)[C@]1(OC(C)=O)CO[C@@H]1C[C@@H]2O` [PACLITAXEL]: it took 0.024 µM to reach half-maximal inhibition in the assay on A2780 (IC50).
`COc1ccc(/C=C2\COc3cc(O)ccc3C2=O)cc1` [BONDUCELLIN]: the IC50 in the assay on Plasmodium falciparum came out at 26 µM; in the assay with A2780 it was 10.6 µM.
As for `COc1cc(/C=C/c2cc(O)cc(O)c2)ccc1O`, the outcome in the assay with A2780 was Active.
In turn, `C[C@@H]1CC[C@H]2[C@@H](C)C(=O)O[C@@H]3O[C@@]4(C)CC[C@@H]1[C@]32OO4` [ARTEMISININ] came in with an IC50 in the assay with Plasmodium falciparum of 0.007 µM.
In the assay with A2780, `Oc1cc(O)cc(/C=C/c2ccc(O)c(O)c2)c1` [PICEATANNOL] yielded an IC50 of 41 µM.
As for `COC1=CC(=O)c2c(O)c(C(C)=O)c(C)c(O)c2C1=O`, the IC50 in the assay on Plasmodium falciparum was found to be 24 µM; in the assay with A2780, 8.1 µM.
In turn, `Oc1ccc(/C=C/c2cc(O)cc(O)c2)cc1` [RESVERATROL] displayed an IC50 with A2780 of 74 µM.
With `COc1cc(O)cc(/C=C/c2ccc(O)c(O)c2)c1`, the IC50 was 27 µM with Plasmodium falciparum and 54 µM in the assay with A2780.

In general, IC50 refers to the concentration at which inhibition is half-maximal. High values mean weaker potency in that assay, low ones greater potency in that assay.
